Experimental data taken from patent US20150087673A1, “METHODS FOR USING AND BIOMARKERS FOR AMPK-ACTIVATING COMPOUNDS” (RIGEL PHARMACEUTICALS, INC., priority 2013, published 2015).

Test system: AMPK
Test: AMPK activation assay (enzyme-linked immunosorbent assay)
Type: cell-based
Experimental: Compounds were assayed for their ability to activate AMPK using an enzyme-linked immunosorbent assay. Reagents and procedures for measuring AMPK activation are well known and kits for AMPK activation assays are commercially available.

SMILES	EC50 [nM]
O=C(NC1CCN(C(=O)C2CCCCC2)CC1)c1ccc(C(=O)N2CCN(Cc3ccc(F)cc3)CC2)cn1 [Compound 7, N-(1-(cyclohexanecarbonyl)piperidin-4-yl)-5-(4-(4-fluorobenzyl)piperazine-1-carbonyl)picolinamide]	< 500
O=C(NC1CCN(C(=O)c2ccccc2)CC1)c1ccc(C(=O)N2CCN(Cc3ccc(F)cc3)CC2)cn1 [Compound 8, N-(1-(benzoyl)piperidin-4-yl)-5-(4-(4-fluorobenzyl)piperazine-1-carbonyl)picolinamide]	< 500
N#Cc1ccc(Cn2ccc(NC(=O)c3ccc(C(=O)N4CCN(Cc5ccc(F)cc5)CC4)cn3)n2)cc1 [Compound 9, N-(1-(4-cyanobenzyl)-1H-pyrazol-3-yl)-5-(4-(4-fluorobenzyl)piperazine-1-carbonyl)picolinamide]	< 500
O=C(Nc1ccc(Cc2ccccc2)cc1)c1ccc(C(=O)N2CCN(Cc3ccc(F)cc3)CC2)cn1 [Compound 10, N-(4-benzylphenyl)-5-(4-(4-fluorobenzyl)piperazine-1-carbonyl)picolinamide]	< 500
O=C(Nc1ccc(-c2ccccc2)cc1)c1ccc(C(=O)N2CCN(Cc3ccc(F)cc3)CC2)cn1 [Compound 11]	< 500
O=C(Nc1cccc(-c2ccccc2)c1)c1ccc(C(=O)N2CCN(Cc3ccc(F)cc3)CC2)cn1 [Compound 12]	5000 to 10000
O=C(NC1CCN(CC2CCCCC2)CC1)c1ccc(C(=O)N2CCN(Cc3ccc(F)cc3)CC2)cn1 [Compound 13, N-(1-(cyclohexylmethyl)piperidin-4-yl)-5-(4-(4-fluorobenzyl)piperazine-1-carbonyl)picolinamide]	1000 to 5000
O=C(NC1CCN(c2ccccc2)CC1)c1ccc(C(=O)N2CCN(Cc3ccc(F)cc3)CC2)cn1 [Compound 14, 5-(4-(4-fluorobenzyl)piperazine-1-carbonyl)-N-(1-(phenyl)piperidin-4-yl)picolinamide]	500 to 1000
N#Cc1ccc(CN2CCC3(CCN(C(=O)c4ccc(C(=O)N5CCN(Cc6ccc(F)cc6)CC5)cn4)CC3)C2)cc1 [Compound 15, 4-((8-(5-(4-(4-fluorobenzyl)piperazine-1-carbonyl)picolinoyl)-2,8-diazaspiro[4.5]decan-2-yl)methyl)benzonitrile]	1000 to 5000
O=C(Nc1ccc(Oc2ccccc2)cc1)c1ccc(C(=O)N2CCN(Cc3ccc(F)cc3)CC2)cn1 [Compound 16, 5-(4-(4-fluorobenzyl)piperazine-1-carbonyl)-N-(4-phenoxyphenyl)picolinamide]	< 500
O=C(c1ccc(-c2ccc(OCc3ccccc3)cc2)nc1)N1CCN(Cc2ccc(F)cc2)CC1 [Compound 17, (4-(4-fluorobenzyl)piperazin-1-yl)(6-(4-(benzyloxy)phenyl)pyridin-3-yl)methanone]	> 10000
CC(c1ccccc1)N1CCC(NC(=O)c2ccc(C(=O)N3CCN(Cc4ccc(F)cc4)CC3)cn2)CC1 (stereo not shown) [Compound 18, 5-(4-(4-fluorobenzyl)piperazine-1-carbonyl)-N-(1-(1-phenylethyl)piperidin-4-yl)picolinamide]	< 500
O=C(Nc1cccc(Oc2ccccc2)c1)c1ccc(C(=O)N2CCN(Cc3ccc(F)cc3)CC2)cn1 [Compound 21, 5-(4-(4-fluorobenzyl)piperazine-1-carbonyl)-N-(3-phenoxyphenyl)picolinamide]	< 500
O=C(c1ccc(-c2cccc(OCc3ccccc3)c2)nc1)N1CCN(Cc2ccc(F)cc2)CC1 [Compound 22, (6-(3-(benzyloxy)phenyl)pyridin-3-yl)(4-(4-fluorobenzyl)piperazin-1-yl)methanone]	< 500
N#Cc1ccc(Cn2cc(NC(=O)c3ccc(C(=O)N4CCN(Cc5ccc(F)cc5)CC4)cn3)cn2)cc1 [Compound 23, N-(1-(4-cyanobenzyl)-1H-pyrazol-4-yl)-5-(4-(4-fluorobenzyl)piperazine-1-carbonyl)picolinamide]	< 500
N#Cc1ccc(-c2ccc(NC(=O)c3ccc(C(=O)N4CCN(Cc5ccc(F)cc5)CC4)cn3)cc2)cc1 [Compound 24, N-(4-(4-cyanophenyl)phenyl)-5-(4-(4-fluorobenzyl)piperazine-1-carbonyl)picolinamide]	< 500
O=C(Nc1ccc(-c2ccc(C(F)(F)F)cc2)cc1)c1ccc(C(=O)N2CCN(Cc3ccc(F)cc3)CC2)cn1 [Compound 25, 5-(4-(4-fluorobenzyl)piperazine-1-carbonyl)-N-(4-(4-trifluoromethylphenyl)phenyl)picolinamide]	< 500
O=C(c1ccccc1)c1ccc(NC(=O)c2ccc(C(=O)N3CCN(Cc4ccc(F)cc4)CC3)cn2)cc1 [Compound 26, N-(4-benzoylphenyl)-5-(4-(4-fluorobenzyl)piperazine-1-carbonyl)picolinamide]	< 500
O=C(Nc1ccc(OCc2ccccc2)cc1)c1ccc(C(=O)N2CCN(Cc3ccc(F)cc3)CC2)cn1 [Compound 27, N-(4-benzyloxyphenyl)-5-(4-(4-fluorobenzyl)piperazine-1-carbonyl)picolinamide]	500 to 1000
O=C(Nc1ccc(Br)cc1)c1ccc(C(=O)N2CCN(Cc3ccc(F)cc3)CC2)cn1 [Compound 28, N-(4-bromophenyl)-5-(4-(4-fluorobenzyl)piperazine-1-carbonyl)picolinamide]	500 to 1000
COc1ccc(-c2ccc(NC(=O)c3ccc(C(=O)N4CCN(Cc5ccc(F)cc5)CC4)cn3)cc2)cc1 [Compound 29, N-(4-(4-methoxyphenyl)phenyl)-5-(4-(4-fluorobenzyl)piperazine-1-carbonyl)picolinamide]	500 to 1000
O=C(c1ccc(Nc2ccc(Cc3ccccc3)cc2)nc1)N1CCN(Cc2ccc(F)cc2)CC1 [Compound 30]	1000 to 5000
N#Cc1ccc(CN2CCC3(CC2)CCN(c2ccc(C(=O)N4CCN(Cc5ccc(F)cc5)CC4)cn2)C3)cc1 [Compound 31, 4-((2-(5-(4-(4-fluorobenzyl)piperazine-1-carbonyl)pyridin-2-yl)-2,8-diazaspiro[4.5]decan-8-yl)methyl)benzonitrile]	< 500
N#Cc1cccc(-c2ccc(NC(=O)c3ccc(C(=O)N4CCN(Cc5ccc(F)cc5)CC4)cn3)cc2)c1 [Compound 32, N-(4-(3-cyanophenyl)phenyl)-5-(4-(4-fluorobenzyl)piperazine-1-carbonyl)picolinamide]	500 to 1000
O=C(c1ccc(Nc2cccc(-c3ccccc3)c2)nc1)N1CCN(Cc2ccc(F)cc2)CC1 [Compound 33, (6-(3-phenylphenylamino)pyridin-3-yl)(4-(4-fluorobenzyl)piperazin-1-yl)methanone]	5000 to 10000
O=C(c1ccc(Nc2ccc(Oc3ccccc3)cc2)nc1)N1CCN(Cc2ccc(F)cc2)CC1 [Compound 34, (4-(4-fluorobenzyl)piperazin-1-yl)(6-(4-phenoxyphenylamino)pyridin-3-yl)methanone]	1000 to 5000
N#Cc1ccc(CNC(=O)c2ccc(-c3ccc(C(=O)N4CCN(Cc5ccc(F)cc5)CC4)cn3)cc2)cc1 [Compound 35, (6-(4-(4-cyanobenzylcarbamoyl)phenyl)pyridin-3-yl)(4-(4-fluorobenzyl)piperazin-1-yl)methanone]	500 to 1000
N#Cc1ccc(CN2CCC(Nc3ccc(C(=O)N4CCN(Cc5ccc(F)cc5)CC4)cn3)CC2)cc1 [Compound 36, (6-(4-(cyanobenzyl)piperidin-4-ylamino)pyridin-3-yl)(4-(4-fluorobenzyl)piperazin-1-yl)methanone]	500 to 1000
